Results from ChEMBL document CHEMBL1800027, “Imidazolopiperazines: hit to lead optimization of new antimalarial agents” (J Med Chem, 2011).

Assays:
Plasmodium falciparum [1] = assay: Antimalarial activity against Plasmodium falciparum 3D7 infected in human erythrocytes assessed as decrease in parasitemia after 72 hrs; format: functional, organism-based; settings: 3D7, 72 h
Plasmodium falciparum [2] = assay: Antimalarial activity against Plasmodium falciparum W2 infected in human erythrocytes assessed as decrease in parasitemia after 72 hrs; format: functional, organism-based; settings: W2, 72 h
Plasmodium berghei [3] = assay: Antimalarial activity against GFP-tagged Plasmodium berghei ANKA infected in NMRI mouse assessed as reduction in parasitemia at 30 mg/kg, po administered as single dose 24 hrs post infection measured 72 hrs post infection; format: functional; set-up: scale not given: the % may be the effect or the level left
Plasmodium berghei [4] = assay: Antimalarial activity against GFP-tagged Plasmodium berghei ANKA infected in NMRI mouse assessed as reduction in parasitemia at 30 mg/kg, po QD administered 24 hrs post infection for 3 days measured on day 4 post infection; format: functional; set-up: scale not given: the % may be the effect or the level left
Plasmodium berghei [5] = assay: Antimalarial activity against GFP-tagged Plasmodium berghei ANKA infected in NMRI mouse assessed as mouse survival at 30 mg/kg, po administered as single dose 24 hrs post infection measured 72 hrs post infection
Plasmodium berghei [6] = assay: Antimalarial activity against GFP-tagged Plasmodium berghei ANKA infected in NMRI mouse assessed as mouse survival at 100 mg/kg, po administered as single dose 24 hrs post infection measured on day 30 post infection
[7] = Cytotoxicity against human HuH7 cells; format: cell-based; settings: Huh-7 cells, read-out: TC50 (the source's name)
[8] = Selectivity index, ratio TC50 for human HuH7 cells to IC50 for Plasmodium falciparum; format: functional, Huh-7
[9] = Selectivity index, ratio TC50 for human HeLa cells to IC50 for Plasmodium falciparum; format: functional
[10] = pampa
Description: Permeability of the compound assessed as amount of compound absorbed by PAMPA method

in vitro [11] = settings: human, Caco-2
Description: Apparent permeability from apical to basolateral side in human Caco2 cells by LC/MS analysis

in vitro [12] = settings: human, Caco-2; remark: listed apart in the source
Description: Apparent permeability from basolateral to apical side in human Caco2 cells by LC/MS analysis

in vitro [13] = settings: mouse
Description: Metabolic stability in mouse hepatic microsomes assessed as extraction ratio by LC/MS/MS analysis

in vitro [14] = settings: rat
Description: Metabolic stability in rat hepatic microsomes assessed as extraction ratio by LC/MS/MS analysis

in vitro [15] = settings: human
Description: Metabolic stability in human hepatic microsomes assessed as extraction ratio by LC/MS/MS analysis

[16] = biological target: Voltage-gated inwardly rectifying potassium channel KCNH2 (Homo sapiens, UniProt Q12809)
Sequence of Voltage-gated inwardly rectifying potassium channel KCNH2 (Q12809 whole entry): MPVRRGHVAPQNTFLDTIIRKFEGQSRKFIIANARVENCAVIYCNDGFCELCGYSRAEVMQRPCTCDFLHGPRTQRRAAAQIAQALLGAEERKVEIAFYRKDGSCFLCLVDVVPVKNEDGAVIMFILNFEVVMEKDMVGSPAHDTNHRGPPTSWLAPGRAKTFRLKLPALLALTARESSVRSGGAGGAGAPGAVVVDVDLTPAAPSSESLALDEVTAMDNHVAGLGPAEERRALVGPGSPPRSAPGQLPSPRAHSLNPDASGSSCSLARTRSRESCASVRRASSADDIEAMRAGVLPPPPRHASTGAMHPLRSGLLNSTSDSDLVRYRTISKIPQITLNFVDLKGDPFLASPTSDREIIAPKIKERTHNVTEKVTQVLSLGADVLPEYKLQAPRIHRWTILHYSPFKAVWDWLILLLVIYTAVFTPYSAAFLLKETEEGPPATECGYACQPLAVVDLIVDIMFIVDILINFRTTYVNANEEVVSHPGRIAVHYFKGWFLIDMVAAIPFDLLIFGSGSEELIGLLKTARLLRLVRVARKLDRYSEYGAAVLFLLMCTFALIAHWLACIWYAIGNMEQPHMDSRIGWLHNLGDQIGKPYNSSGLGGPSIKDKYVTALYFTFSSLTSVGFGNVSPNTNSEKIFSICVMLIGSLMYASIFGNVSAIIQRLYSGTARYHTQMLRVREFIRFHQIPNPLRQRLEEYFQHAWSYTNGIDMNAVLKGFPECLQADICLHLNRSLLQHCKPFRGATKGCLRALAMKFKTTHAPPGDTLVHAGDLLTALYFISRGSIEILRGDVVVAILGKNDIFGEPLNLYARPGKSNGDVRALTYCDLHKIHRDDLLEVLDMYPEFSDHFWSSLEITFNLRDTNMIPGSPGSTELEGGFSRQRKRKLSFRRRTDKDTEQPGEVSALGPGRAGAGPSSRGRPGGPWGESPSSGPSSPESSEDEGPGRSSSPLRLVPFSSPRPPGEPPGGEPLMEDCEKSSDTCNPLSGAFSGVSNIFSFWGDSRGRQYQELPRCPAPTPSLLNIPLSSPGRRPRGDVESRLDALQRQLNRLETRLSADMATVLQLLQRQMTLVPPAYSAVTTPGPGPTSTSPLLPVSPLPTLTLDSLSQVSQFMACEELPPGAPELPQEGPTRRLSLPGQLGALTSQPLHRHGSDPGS
Description: Inhibition of human ERG expressed in CHO cells by Q-patch assay

in vivo [17] = settings: female, CD1, mouse, iv, 5 mg/kg
Description: Volume of distribution in female CD1 mouse at 5 mg/kg, iv by LC/MS/MS analysis

in vivo [18] = settings: female, CD1, mouse, iv, 5 mg/kg; remark: listed apart in the source
Description: Clearance in female CD1 mouse at 5 mg/kg, iv by LC/MS/MS analysis

in vivo [19] = settings: female, CD1, mouse, iv, 5 mg/kg; remark: listed apart in the source
Description: Half-life in female CD1 mouse at 5 mg/kg, iv by LC/MS/MS analysis

in vivo [20] = settings: female, CD1, mouse, plasma, iv, 5 mg/kg
in vivo [21] = settings: female, CD1, mouse, plasma, po, 30 mg/kg
in vivo [22] = settings: female, CD1, mouse, po, 30 mg/kg
Description: Half life in female CD1 mouse at 20 mg/kg, po by LC/MS/MS analysis

[23] = Cmax in female CD1 mouse at 30 mg/kg, po by LC/MS/MS analysis; settings: in vivo
[24] = Tmax in female CD1 mouse at 30 mg/kg, po by LC/MS/MS analysis; settings: in vivo
[25] = Oral bioavailability in female CD1 mouse at 30 mg/kg by LC/MS/MS analysis; settings: female, CD1, mouse, in vivo
Plasmodium berghei [26] = assay: Antimalarial activity against GFP-tagged Plasmodium berghei ANKA infected in NMRI mouse assessed as mouse survival at 30 mg/kg, po QD administered 24 hrs post infection for 3 days measured on day 30 post infection; format: functional

For `CC(C)(N)C(=O)N1CCn2c(nc(-c3ccc(F)cc3)c2Nc2cccnc2)C1`, the IC50 (Plasmodium falciparum [1]) was 1410 nM and the IC50 (Plasmodium falciparum [2]) was 3320 nM.

Work on `C[C@H]1[C@H](OC(=O)CCC(=O)O)O[C@@H]2O[C@@]3(C)CC[C@H]4[C@H](C)CC[C@@H]1[C@@]24OO3` [ARTESUNATE] yielded an Activity (Plasmodium berghei [3]) of 89%, an Activity (Plasmodium berghei [4]) of 97% and a Survival (Plasmodium berghei [5]) of 7.2 days. It also gave a Survival (Plasmodium berghei [6]) of 6.7 days.

Work on `Fc1ccc(Nc2c(-c3ccc(F)cc3)nc3cnccn23)cc1` yielded an IC50 (Plasmodium falciparum [1]) greater than 10 nM and an IC50 (Plasmodium falciparum [2]) of 5520 nM.

For `C[C@H](N)C(=O)N1CCn2c(nc(-c3ccc(F)cc3)c2Nc2ccc(F)cc2)C1`, the IC50 (Plasmodium falciparum [1]) was 90 nM and the IC50 (Plasmodium falciparum [2]) was 64 nM.

With `NC(Cc1ccccc1)C(=O)N1CCn2c(nc(-c3ccccc3)c2Nc2ccc3c(c2)OCO3)C1` (racemic) the IC50 (Plasmodium falciparum [1]) was 235 nM, the IC50 (Plasmodium falciparum [2]) was 271 nM and the CC50 [7] was greater than 10000 nM. The “Selectivity Index” value [8] was greater than 20 and the “Selectivity Index” value [9] was greater than 20.

In the case of `Fc1ccc(Nc2c(-c3ccc(F)cc3)nc3n2CCNC3)cc1`, the IC50 (Plasmodium falciparum [1]) is reported as 200 nM and the IC50 (Plasmodium falciparum [2]) is reported as 175 nM.

`CC(C)(N)C(=O)N1CCn2c(nc(-c3ccccc3)c2Nc2ccc(F)cc2)C1` showed an IC50 (Plasmodium falciparum [1]) of 200 nM and an IC50 (Plasmodium falciparum [2]) of 168 nM.

With `Cc1ccc(Nc2c(-c3ccc(F)c(F)c3)nc3n2CCN(C(=O)C(C)(C)N)C3)cc1` the IC50 (Plasmodium falciparum [1]) was 60 nM and the IC50 (Plasmodium falciparum [2]) was 50 nM.

`N[C@@H](Cc1ccccc1)C(=O)N1CCn2c(nc(-c3ccc(F)cc3)c2Nc2ccc(F)cc2)C1` gave an IC50 (Plasmodium falciparum [1]) of 110 nM and an IC50 (Plasmodium falciparum [2]) of 121 nM.

`CC(C)(N)C(=O)N1CCn2c(nc(-c3ccc(F)cc3)c2Nc2cc(F)cc(F)c2)C1` showed an IC50 (Plasmodium falciparum [1]) of 220 nM and an IC50 (Plasmodium falciparum [2]) of 244 nM.

Compound `NCC(=O)N1CCn2c(nc(-c3ccc(F)cc3)c2Nc2ccc(Cl)cc2)C1` has an IC50 (Plasmodium falciparum [1]) of 10 nM, an IC50 (Plasmodium falciparum [2]) of 9 nM and a permeability [10] of 52%. The Papp A→B (in vitro [11]) was 0.44 ×10⁻⁶ cm/s, the Papp B→A (in vitro [12]) was 1.25 ×10⁻⁶ cm/s and the hepatic extraction ratio (in vitro [13]; liver microsomes) was 0.17. For the same compound, the hepatic extraction ratio (in vitro [14]; liver microsomes) was 0.63 and the hepatic extraction ratio (in vitro [15]; liver microsomes) was 0.55.

`C[C@@H]1CC[C@H]2[C@@H](C)C(=O)O[C@@H]3O[C@@]4(C)CC[C@@H]1[C@]32OO4` [ARTEMISININ] gave an IC50 (Plasmodium falciparum [1]) of 12 nM.

With `CC(C)[C@H](N)C(=O)N1CCn2c(nc(-c3ccc(F)cc3)c2Nc2ccc(F)cc2)C1` the IC50 (Plasmodium falciparum [1]) was 30 nM and the IC50 (Plasmodium falciparum [2]) was 24 nM.

`NCC(=O)N1CCn2c(nc(-c3ccc(Cl)cc3)c2Nc2ccc(F)cc2)C1` showed an IC50 (Plasmodium falciparum [1]) of 660 nM and an IC50 (Plasmodium falciparum [2]) of 437 nM.

`CC(C)(N)C(=O)N1CCn2c(nc(-c3ccc(F)cc3)c2Nc2ccc(Cl)c(F)c2)C1` gave an IC50 (Plasmodium falciparum [1]) of 40 nM, an IC50 (Plasmodium falciparum [2]) of 52 nM and an Activity (Plasmodium berghei [4]) of 99.8%. It also gave an IC50 [16] of 5600 nM, a permeability [10] of 94% and a Vd (in vivo [17]) of 1.7 L/kg. It also gave a clearance (in vivo [18]) of 5.8 mL/min/kg, a half-life (in vivo [19]) of 7.8 h and an AUC(0-inf) (in vivo [20]) of 25.5 µM·h. For the same compound, the AUC(0-inf) (in vivo [21]) was 36.7 µM·h, the half-life (in vivo [22]) was 9.1 h and the Papp A→B (in vitro [11]) was 0.84 ×10⁻⁶ cm/s. It also gave a Papp B→A (in vitro [12]) of 0.87 ×10⁻⁶ cm/s, a hepatic extraction ratio (in vitro [13]; microsomes) of 0.76 and a hepatic extraction ratio (in vitro [14]; microsomes) of 0.67. The hepatic extraction ratio (in vitro [15]; microsomes) was 0.48, the Cmax [23] was 3320 nM and the Tmax [24] was 2 h. It also gave a bioavailability [25] of 24%, a Survival (Plasmodium berghei [5]) of 7 days and a Survival (Plasmodium berghei [6]) of 11 days.

Compound `Cc1ccc(-c2nc3n(c2Nc2ccc(F)cc2)CCN(C(=O)CN)C3)cc1` has an IC50 (Plasmodium falciparum [1]) of 3140 nM and an IC50 (Plasmodium falciparum [2]) of 3360 nM.

`NCC(=O)N1CCn2c(nc(-c3ccc(F)cc3)c2Nc2cccc(F)c2)C1` showed an IC50 (Plasmodium falciparum [1]) of 50 nM and an IC50 (Plasmodium falciparum [2]) of 34 nM.

Work on `NCC(=O)N1CCn2c(nc(-c3cccc(F)c3)c2Nc2ccc(F)cc2)C1` yielded an IC50 (Plasmodium falciparum [1]) of 10 nM, an IC50 (Plasmodium falciparum [2]) of 30 nM and an Activity (Plasmodium berghei [3]) of 86%. For the same compound, the Activity (Plasmodium berghei [4]) was 99.7%, the IC50 [16] was greater than 30000 nM and the Vd (in vivo [17]) was 21.6 L/kg. For the same compound, the clearance (in vivo [18]) was 192 mL/min/kg, the half-life (in vivo [19]) was 1.8 h and the AUC(0-inf) (in vivo [20]) was 1.23 µM·h. The AUC(0-inf) (in vivo [21]) was 1.33 µM·h, the half-life (in vivo [22]) was 1 h and the Papp A→B (in vitro [11]) was 0.56 ×10⁻⁶ cm/s. The Papp B→A (in vitro [12]) was 2.32 ×10⁻⁶ cm/s, the hepatic extraction ratio (in vitro [13]; liver microsomes) was 0.31 and the Cmax [23] was 417 nM. It also gave a Tmax [24] of 2 h, a bioavailability [25] of 18% and a Survival (Plasmodium berghei [5]) of 6 days. For the same compound, the Survival (Plasmodium berghei [6]) was 10 days.

With `CC(C)CC(N)C(=O)N1CCn2c(nc(-c3ccccc3)c2Nc2ccc3c(c2)OCO3)C1` (racemic) the IC50 (Plasmodium falciparum [1]) was 116 nM, the IC50 (Plasmodium falciparum [2]) was 119 nM and the CC50 [7] was greater than 10000 nM. The “Selectivity Index” value [8] was greater than 20 and the “Selectivity Index” value [9] was greater than 20.

In the case of `CCc1nc(N)nc(N)c1-c1ccc(Cl)cc1` [PYRIMETHAMINE], the IC50 (Plasmodium falciparum [2]) is reported as greater than 10000 nM.

With `CC(C)(N)C(=O)N1CCn2c(nc(-c3ccc(F)cc3)c2Nc2ccc(F)cc2F)C1` the IC50 (Plasmodium falciparum [1]) was 110 nM and the IC50 (Plasmodium falciparum [2]) was 90 nM.

For `NCC(=O)N1CCn2c(nc(-c3ccc(F)cc3)c2Nc2ccc(F)c(F)c2)C1`, the IC50 (Plasmodium falciparum [1]) was 30 nM, the IC50 (Plasmodium falciparum [2]) was 23 nM and the Papp A→B (in vitro [11]) was 0.99 ×10⁻⁶ cm/s. The Papp B→A (in vitro [12]) was 2.99 ×10⁻⁶ cm/s, the hepatic extraction ratio (in vitro [13]; liver microsomes) was 0.21 and the hepatic extraction ratio (in vitro [14]; liver microsomes) was 0.38. It also gave a hepatic extraction ratio (in vitro [15]; liver microsomes) of 0.21.

In the case of `CC(C)(N)C(=O)N1CCn2c(nc(-c3ccccc3F)c2Nc2ccc(F)cc2)C1`, the IC50 (Plasmodium falciparum [1]) is reported as 1390 nM and the IC50 (Plasmodium falciparum [2]) is reported as 1280 nM.

`N[C@H](Cc1ccccc1)C(=O)N1CCn2c(nc(-c3ccc(F)cc3)c2Nc2ccc(F)cc2)C1` showed an IC50 (Plasmodium falciparum [1]) of 70 nM and an IC50 (Plasmodium falciparum [2]) of 59 nM.

Work on `NCCC(=O)N1CCn2c(nc(-c3ccc(F)cc3)c2Nc2ccc(F)cc2)C1` yielded an IC50 (Plasmodium falciparum [1]) of 70 nM and an IC50 (Plasmodium falciparum [2]) of 75 nM.

For `NCC(=O)N1CCn2c(nc(-c3ccc(F)cc3)c2Nc2ccc(F)cc2)C1`, the IC50 (Plasmodium falciparum [1]) was 20 nM, the IC50 (Plasmodium falciparum [2]) was 23 nM and the permeability [10] was 52%. It also gave a Vd (in vivo [17]) of 12.3 L/kg, a clearance (in vivo [18]) of 189 mL/min/kg and a half-life (in vivo [19]) of 2.7 h. The AUC(0-inf) (in vivo [20]) was 1.07 µM·h, the AUC(0-inf) (in vivo [21]) was 0.965 µM·h and the half-life (in vivo [22]) was 4.2 h. It also gave a Papp A→B (in vitro [11]) of 0.7 ×10⁻⁶ cm/s, a Cmax [23] of 234 nM and a Tmax [24] of 2 h. For the same compound, the bioavailability [25] was 15%.

Work on `COc1ccc(-c2nc3n(c2Nc2ccc(F)cc2)CCN(C(=O)CN)C3)cc1` yielded an IC50 (Plasmodium falciparum [1]) of 2270 nM and an IC50 (Plasmodium falciparum [2]) of 1700 nM.

With `CCN(CC)CCCC(C)Nc1ccnc2cc(Cl)ccc12` (centres undefined) [CHLOROQUINE] the Activity (Plasmodium berghei [4]) was greater than 99.9%, the Survival (Plasmodium berghei [26]) was 18.8 days and the Survival (Plasmodium berghei [5]) was 8.7 days. The Survival (Plasmodium berghei [6]) was 12 days.

`CC(C)(N)C(=O)N1CCn2c(nc(-c3ccc(F)cc3)c2NC2CCCCC2)C1` showed an IC50 (Plasmodium falciparum [1]) of 9610 nM and an IC50 (Plasmodium falciparum [2]) of 5980 nM.
